The test system of one test is Egr-1 protein. The test can be described thus: Egr-1 protein expression in Panc-1 cells, Western blot. It counts as cell-based. Particulars: 50 μM, 48 h. As for the experimental part: Cells are washed once with phosphate buffered saline PBS and collected by scraping in 200 μL of lysis buffer [50 mM HEPES, 0.5M sodium chloride, 1.5 mM magnesium chloride, 1 mM EGTA, 10% (v/v) glycerol, 1% Triton X-100, 5 μL/ml of Protease Inhibitor Cocktail (Sigma)]. The lysates from the cells are incubated on ice for 1 hr with intermittent vortexing followed by centrifugation at 40,000 g for 10 min at 4° C. Equal amounts of protein (60 μg) from each treatment group are diluted with loading buffer, boiled and loaded onto 10 and 12.5% SDS-polyacrylamide gel. For vascular endothelial growth factor immunoblots, 100 μg of protein are used. Samples are electrophoresed, transferred to membranes, and proteins detected by incubation with polyclonal primary antibodies Sp1, Sp3, Sp4, HDAC, VEGF (a-20), c-Met, surviving, VEGF, cleaved PARP, and β-tubulin (H-235) followed by blotting with appropriate horseradish peroxidase-conjugated secondary antibody as previously described (Abdelrahim et al, 2004). After autoradiography, band intensities are determined by a scanning laser densitometer (Sharp Electronics Corporation, Mahwah, N.J.) using ZERO-D SCANALYTICS software (Scanalytics Corporation, Billerica, Mass.).
The proximal region of the VEGFR1 promoter contains GC-rich and Egr-1 sites. […]
For orientation: In western blotting, separated proteins are transferred to a membrane and probed.

The test system of test [1] is VEGFR1. Kind of test: VEGFR1 protein expression in L3.6pl cells (Western blot). The class given is cell-based, human. Particulars: 50 μM, 48 h. Here is the method: FIGS. 14A-14D show tolfenamic acid decreases expression of Sp and VEGFR1 proteins in pancreatic cancer cells. Tolfenamic acid effects on Panc-1 cells (FIG. 14A and FIG. 14B), and L3.6pl cells (FIG. 14C and FIG. 14D). Cells were treated with DMSO, 50 μM tolfenamic acid, or 50 μM ampiroxicam for 48 h, and whole cell lysates were analyzed by Western blot analysis. […] FIGS. 16A-16D show the interaction of Sp proteins with VEGFR1 promoter sequences. […] The specific Sp protein bands and antibody supershifted complexes are indicated with arrows. Effects of tolfenamic acid on VEGFR1 and Egr-1 protein expression in Panc-1 cells (FIG. 16C), and L3.6pl cells (FIG. 16D). […] Samples are electrophoresed, transferred to membranes, and proteins detected by incubation with polyclonal primary antibodies Sp1, Sp3, Sp4, HDAC, VEGF (a-20), c-Met, surviving, VEGF, cleaved PARP, and β-tubulin (H-235) followed by blotting with appropriate horseradish peroxidase-conjugated secondary antibody as previously described (Abdelrahim et al, 2004). After autoradiography, band intensities are determined by a scanning laser densitometer (Sharp Electronics Corporation, Mahwah, N.J.) using ZERO-D […] software (Scanalytics Corporation, Billerica, Mass.).

The subject of a further test is VEGFR1 promoter. The test can be described thus: VEGFR1 promoter (pVEGFR1A-C) luciferase activity in Panc-1 cells. The class given is cell-based. As to conditions: 50 μM. Here is the method:
FIGS. 17A-17D show effects of tolfenamic acid on the VEGFR1 promoter and mRNA expression. Transfection with pVEGFR1-A (FIG. 17A), pVEGFR1-B (FIG. 17B), and pVEGFR1-C (FIG. 17C). Panc-1 cells were transfected with pVEGFR1 constructs, treated with DMSO, 50 μM ampiroxicam, or 50 μM tolfenamic acid, and luciferase activity was determined as described in Materials and Methods. […] Results are shown for a single experiment and similar data was obtained in replicate experiments. Cells are cultured in 6-well plates in 2 ml of DME/F12 medium supplemented with 5% fetal bovine serum. After 16-20 hr when cells are 50-60% confluent, reporter gene constructs are transfected using LIPOFECTAMINE™ reagent (Invitrogen, Carlsbad, Calif.). The effects of the selective non-steroidal anti-inflammatory drugs on transactivation are investigated in Panc1 and L3.6pl cells co-transfected with different VEGF constructs (500 ng). […] For proteasome inhibitor experiments, cells will be co-treated with 2 μM lactacystin, and for electrophoretic mobility shift assay (EMSA), nuclear extracts from Panc1 and L3.6pl cells are isolated as described, and aliquots will be stored at −80° C. until used (Abdelrahim et al, 2004; Abdelrahim et al, 2005).

For test [2], the system named is Sp1, Sp3, and Sp4 proteins. The test can be described thus: Western blot of Sp1, Sp3 and Sp4 protein expression in Panc-1 cells. It counts as cell-based. Particulars: for Sp1, Sp3, and Sp4 protein expression: Western blot, vs DMSO.
Test [3] has as its system VEGFR1. The test can be described thus: VEGFR1 protein expression in Panc-1 cells (Western blot, immunostaining). It counts as cell-based. Particulars: 50 μM, 48 h. Here is the method:
FIGS. 14A-14D show tolfenamic acid decreases expression of Sp and VEGFR1 proteins in pancreatic cancer cells. Tolfenamic acid effects on Panc-1 cells (FIG. 14A and FIG. 14B), and L3.6pl cells (FIG. 14C and FIG. 14D). Cells were treated with DMSO, 50 μM tolfenamic acid, or 50 μM ampiroxicam for 48 h, and whole cell lysates were analyzed by Western blot analysis. […] FIGS. 16A-16D show the interaction of Sp proteins with VEGFR1 promoter sequences. […] The specific Sp protein bands and antibody supershifted complexes are indicated with arrows. Effects of tolfenamic acid on VEGFR1 and Egr-1 protein expression in Panc-1 cells (FIG. 16C), and L3.6pl cells (FIG. 16D). […] Cells are washed once with phosphate buffered saline PBS and collected by scraping in 200 μL of lysis buffer [50 mM HEPES, 0.5M sodium chloride, 1.5 mM magnesium chloride, 1 mM EGTA, 10% (v/v) glycerol, 1% Triton X-100, 5 μL/ml of Protease Inhibitor Cocktail (Sigma)]. The lysates from the cells are incubated on ice for 1 hr with intermittent vortexing followed by centrifugation at 40,000 g for 10 min at 4° C. […] Samples are electrophoresed, transferred to membranes, and proteins detected by incubation with polyclonal primary antibodies Sp1, Sp3, Sp4, HDAC, VEGF (a-20), c-Met, surviving, VEGF, cleaved PARP, and β-tubulin (H-235) followed by blotting with appropriate horseradish peroxidase-conjugated secondary antibody as previously described (Abdelrahim et al, 2004). After autoradiography, band intensities are determined by a scanning laser densitometer (Sharp Electronics Corporation, Mahwah, N.J.) using ZERO-D […] software (Scanalytics Corporation, Billerica, Mass.).

The next test concerns Panc-1 cells. The test can be described thus: Panc-1 cell migration (scratch) assay on collagen IV-coated plates. It counts as cell-based. Particulars: 50 μM; for VEGF-B-induced cell migration: VEGF-B 50 ng/ml, 16 h. As for the experimental part: Cells were pretreated with DMSO, 50 μM ampiroxicam, or 50 μM tolfenamic acid for 36 hr; VEGF-B (50 ng/ml) was added for 5 or 10 min, and whole cell lysates were obtained and analyzed by Western blot. Cell migration assay (FIG. 18C). […] Immunostaining of pancreatic tumors (FIG. 18D). Pancreatic tumors from athymic nude mice treated with solvent (control), gemcitabine (50 mg/kg), or tolfenamic acid (25 and 50 mg/kg) (Dick, 1996) were stained with VEGFR1 antibodies as described below and in a previous report (Dick, 1996).
Panc-1 cells were pretreated with DMSO, 50 μM ampiroxicam, or 50 μM tolfenamic acid for 48 h, and then were treated with VEGF-B (50 ng/ml) for 5 and 10 min. MAPK phosphorylation in the various treatment groups was then determined by western immunoblot analysis as described above. For migration assays, Panc-1 cells were seeded in triplicate in six-well collagen IV coated plates and then treated with the selected non-steroidal anti-inflammatory drugs for 24 h before the scratch was made. A scratch through the central axis of the plate was gently made using a sterile pipette tip. Cells were 70% confluent when the scratch was made. […] Results of this study were obtained at a 16 h time point and one plate was stained using DIFF QUIK (Dade Behring, Newark, Del.).
Previous studies have reported that activation of VEGFR1 by VEGF-B in pancreatic cancer cells results in enhanced phosphorylation of MAPK and increased cell migration and invasion. […] The importance of Sp protein in VEGFR1-dependent Panc-1 cell migration was determined using a cell migration assay on collagen IV-coated plates.

Molecules are shown by their SMILES. Entries after “also recorded” stand apart in the source; their conditions may differ.

On to `CCOC(=O)OC(C)OC1=C(C(=O)Nc2ccccn2)N(C)S(=O)(=O)c2ccccc21` (stereo not drawn) [ampiroxicam], for which the Egr-1 protein entry in the test with Egr-1 protein was “unchanged in all treatment groups”. Moreover, the “VEGFR1 protein levels, Western blot” value with VEGFR1 [1] is given as “only the latter compound decreased VEGFR1 protein levels”. In addition, in the test with VEGFR1 promoter, the “luciferase activity, pVEGFR1A, pVEGFR1B and pVEGFR1C” value is on record as “but not DMSO or ampiroxicam, decreased luciferase activity”. For the same molecule, the “Sp1, Sp3, and Sp4 protein expression” value in test [2] (50 μM, 48 hr) was “had no effect; also recorded: did not affect Sp protein levels”. In test [2] (150 μM, 48 hr (concentration of comparable growth inhibition)), the Sp protein degradation result is on record as “only tolfenamic acid induced protein degradation”. Also, in the test on VEGFR1 [3], the VEGFR1 immunostaining entry is on record as “VEGFR1 immunostaining was observed” and the “VEGFR1 protein levels, Western blot” value is reported as “only the latter compound decreased VEGFR1 protein levels”. In the test with Panc-1 cells, the VEGF-B-induced cell migration result is “inactive in all assays”.
Turning to `Cc1c(Cl)cccc1Nc1ccccc1C(=O)O` [tolfenamic acid], the Egr-1 protein entry with Egr-1 protein is “unchanged in all treatment groups”. Besides, the “VEGFR1 protein levels, Western blot” value in the test with VEGFR1 [1] was “decreased VEGFR1 protein levels”. Moreover, the “luciferase activity, pVEGFR1A, pVEGFR1B and pVEGFR1C” value in the test with VEGFR1 promoter is “decreased luciferase activity”. Further, in test [2] (50 μM, 48 hr), the “decrease in levels of Sp1, Sp3, and Sp4 proteins” value is reported as “greater than 80%”; the “order of potency for decreased expression of Sp1, Sp3, and Sp4 proteins” value was “tolfenamic acid>diclofenac˜diflunisal”; the “Sp1, Sp3, and Sp4 protein expression” value was “decreased expression of Sp1, Sp3, and Sp4 proteins; also recorded: induced protein degradation”. Further, in the test with VEGFR1 [3], the VEGFR1 immunostaining entry is reported as “decreased VEGFR1 staining” and the “VEGFR1 protein levels, Western blot” value is on record as “decreased VEGFR1 protein levels”. Further, the “cell migration in the absence of VEGF-B” value with Panc-1 cells (16 h time point, DMSO set at 100%) is reported as “only significantly inhibited by tolfenamic acid”. In addition, the VEGF-B-induced cell migration result in the test on Panc-1 cells is recorded as “significantly inhibited VEGF-B-induced cell migration”.
